Reference: patent US11617753B2 (priority 2016, dated 2023)
pIC50: −log10 of the molar value. Structures can show the parent of a compound that is named as a salt. Where two headings read alike, the source gives them in different places.

Legend:
Ebola L polymerase [1] = molecular target: T1, Ebola L polymerase (Zaire ebolavirus, UniProt Q05318); type: cell-based, Ebola virus; conditions: 15 μM
Ebola VP40 protein [2] = molecular target: T2, Ebola VP40 protein (Zaire ebolavirus, UniProt Q05128); type: cell-based, Ebola virus
T2 sequence (Q05128 whole entry, looked up): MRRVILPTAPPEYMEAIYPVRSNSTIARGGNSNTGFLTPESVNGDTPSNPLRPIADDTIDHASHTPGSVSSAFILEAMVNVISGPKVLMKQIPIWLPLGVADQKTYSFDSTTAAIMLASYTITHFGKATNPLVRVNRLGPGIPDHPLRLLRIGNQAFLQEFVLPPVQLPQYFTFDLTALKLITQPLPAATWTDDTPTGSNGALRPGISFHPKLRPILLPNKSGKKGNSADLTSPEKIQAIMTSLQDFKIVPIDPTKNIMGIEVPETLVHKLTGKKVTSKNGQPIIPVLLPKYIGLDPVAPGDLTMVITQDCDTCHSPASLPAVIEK

Ebola VP40 protein [3] = molecular target: T2, Ebola VP40 protein; type: cell-based, Ebola virus; remark: listed apart in the source
Ebola L polymerase [4] = molecular target: T1, Ebola L polymerase; experiment: cell-based; design: species or system Ebola virus
EBOV-Mak = experiment: microbe, parasite or virus in culture; type: cell-based; conditions: Zaire ebolavirus, Huh-7, read-out: IC50, inhibition of Ebola infectivity
Huh7 cells = conditions: human

T1 sequence (Q05318 whole entry, looked up): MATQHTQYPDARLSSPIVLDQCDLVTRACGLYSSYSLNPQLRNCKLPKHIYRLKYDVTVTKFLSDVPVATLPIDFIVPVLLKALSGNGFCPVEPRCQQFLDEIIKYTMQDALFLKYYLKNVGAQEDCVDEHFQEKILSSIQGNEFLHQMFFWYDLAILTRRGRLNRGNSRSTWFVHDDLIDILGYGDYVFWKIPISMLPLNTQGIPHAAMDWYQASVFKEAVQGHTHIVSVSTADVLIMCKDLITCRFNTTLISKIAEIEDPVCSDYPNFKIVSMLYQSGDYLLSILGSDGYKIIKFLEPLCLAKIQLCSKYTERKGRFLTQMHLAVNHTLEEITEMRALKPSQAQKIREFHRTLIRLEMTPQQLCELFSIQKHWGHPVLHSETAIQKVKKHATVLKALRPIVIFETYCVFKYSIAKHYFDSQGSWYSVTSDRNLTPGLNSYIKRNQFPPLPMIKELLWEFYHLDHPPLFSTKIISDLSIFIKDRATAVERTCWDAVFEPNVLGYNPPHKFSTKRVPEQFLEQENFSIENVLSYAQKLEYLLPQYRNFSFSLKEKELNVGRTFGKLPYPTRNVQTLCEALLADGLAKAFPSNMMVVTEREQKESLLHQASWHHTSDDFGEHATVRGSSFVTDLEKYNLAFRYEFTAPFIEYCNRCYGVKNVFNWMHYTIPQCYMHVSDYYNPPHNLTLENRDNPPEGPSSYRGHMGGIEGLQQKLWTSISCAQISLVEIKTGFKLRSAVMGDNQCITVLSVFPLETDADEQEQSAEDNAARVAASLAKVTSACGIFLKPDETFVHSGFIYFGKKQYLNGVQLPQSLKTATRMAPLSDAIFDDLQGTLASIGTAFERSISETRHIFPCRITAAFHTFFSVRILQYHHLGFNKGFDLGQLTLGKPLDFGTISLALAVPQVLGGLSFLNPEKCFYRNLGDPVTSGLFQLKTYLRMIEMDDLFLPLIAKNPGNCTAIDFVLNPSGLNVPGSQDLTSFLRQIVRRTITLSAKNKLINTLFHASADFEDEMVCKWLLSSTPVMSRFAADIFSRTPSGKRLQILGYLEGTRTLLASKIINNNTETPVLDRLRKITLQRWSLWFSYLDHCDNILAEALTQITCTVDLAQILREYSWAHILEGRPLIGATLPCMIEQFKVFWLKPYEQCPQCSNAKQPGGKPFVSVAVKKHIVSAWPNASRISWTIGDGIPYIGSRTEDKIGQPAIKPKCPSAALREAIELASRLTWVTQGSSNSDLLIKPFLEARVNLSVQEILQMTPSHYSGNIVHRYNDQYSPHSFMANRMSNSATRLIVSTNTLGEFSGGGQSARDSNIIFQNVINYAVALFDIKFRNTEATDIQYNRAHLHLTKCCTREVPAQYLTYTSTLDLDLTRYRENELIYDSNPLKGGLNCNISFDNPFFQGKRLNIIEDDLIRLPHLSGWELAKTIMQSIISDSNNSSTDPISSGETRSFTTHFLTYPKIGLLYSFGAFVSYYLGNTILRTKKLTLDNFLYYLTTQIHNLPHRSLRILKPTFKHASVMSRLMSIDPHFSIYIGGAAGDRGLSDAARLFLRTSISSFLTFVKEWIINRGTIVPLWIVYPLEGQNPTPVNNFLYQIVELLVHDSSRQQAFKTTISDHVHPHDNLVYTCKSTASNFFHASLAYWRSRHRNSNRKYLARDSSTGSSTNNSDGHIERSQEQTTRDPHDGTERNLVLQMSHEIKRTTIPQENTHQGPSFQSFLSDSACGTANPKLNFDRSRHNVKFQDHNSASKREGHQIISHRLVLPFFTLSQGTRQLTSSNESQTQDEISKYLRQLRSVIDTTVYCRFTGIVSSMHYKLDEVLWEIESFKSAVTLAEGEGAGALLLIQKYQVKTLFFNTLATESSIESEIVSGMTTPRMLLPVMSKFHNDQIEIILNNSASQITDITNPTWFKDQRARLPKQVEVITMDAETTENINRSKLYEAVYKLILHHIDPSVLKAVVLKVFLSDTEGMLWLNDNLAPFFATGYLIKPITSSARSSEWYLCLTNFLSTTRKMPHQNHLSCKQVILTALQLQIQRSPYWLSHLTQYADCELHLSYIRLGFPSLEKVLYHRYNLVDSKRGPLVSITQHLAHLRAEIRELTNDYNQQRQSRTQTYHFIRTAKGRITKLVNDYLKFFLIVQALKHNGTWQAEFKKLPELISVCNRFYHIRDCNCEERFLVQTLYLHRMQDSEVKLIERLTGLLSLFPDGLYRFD

## NC(=O)c1cn([C@@H]2O[C@H](CO)[C@@H](O)[C@H]2O)c2ncnc(N)c12 [sangivamycin HCl, 4-amino-7-((2R,3R,4S,5R)-3,4-dihydroxy-5-(hydroxymethyl)tetrahydrofuran-2-yl)-7H-pyrrolo[2,3-d]pyrimidine-5-carboxamide (sangivamycin) hydrochloride]
Ebola L polymerase [1]; hydrochloride
  % EGFP signal: 20%
  % mCherry signal: 10%

## NC(=O)c1cn([C@@H]2O[C@H](CO)[C@@H](O)[C@H]2O)c2ncnc(N)c12 [sangivamycin, 4-amino-7-((2R,3R,4S,5R)-3,4-dihydroxy-5-(hydroxymethyl)tetrahydrofuran-2-yl)-7H-pyrrolo[2,3-d]pyrimidine-5-carboxamide]
Ebola VP40 protein [2]
  EGFP fluorescent signal, % of solvent control signal, dose-response: largest decrease in signal
  concentration at which VLP formation in the cell is prevented (shift in membrane associated VP40): above 37.5 nM
Ebola VP40 protein [3]; 50 nM
  VLP isolated (western blot for VP40): clear reduction in VLP
Ebola VP40 protein [3]; 500 nM
  VLP isolated (western blot for VP40): drastic reduction in VLP
Ebola L polymerase [1]
  % EGFP signal: 27%
  % mCherry signal: 4%
Ebola L polymerase [4]
  pIC50: 7.52
EBOV-Mak
  pIC50: ~7.00
Huh7 cells
  50% cytotoxicity concentration: > 600 nM
